In PubChem BioAssay AID602133 (Sanford-Burnham Center for Chemical Genomics, 2011):
Activity calls are given as the source filed them. No rule for the calls is given here.

molecular target: glucose-6-phosphate dehydrogenase-6-phosphogluconolactonase (Plasmodium falciparum 3D7); experiment: inhibition of P. falciparum G6PD rate – biochemical, kinetic direct NADPH detection, set 2, orthogonal assay for PfG6PD antimalarial inhibitor project, SAR follow-up (AID 602133); settings: recombinant PfG6PD

SMILES	IC50
CCC(C)N(CCNC(=O)c1ccc2c(c1)NC(=O)c1ccccc1S2)C1CCCCC1 (stereo not drawn)	13.3 µM
O=C(NCCN1CCCCC1)c1ccc2c(c1)NC(=O)c1ccccc1S2	18.3 µM
CCN1CCC[C@@H]1CNC(=O)c1ccc2c(c1)NC(=O)c1ccccc1S2	4.84 µM
O=C(NCCN1CCOCC1)c1ccc2c(c1)NC(=O)c1ccccc1S2	> 80 µM (inactive)
CCN1CCC[C@H]1CNC(=O)c1ccc2c(c1)NC(=O)c1ccccc1S2	46.4 µM
CCN1CCCC1CNC(=O)c1ccc2c(c1)NC(=O)/C(=C/c1ccc3ccccc3c1)S2 (stereo not drawn)	2.88 µM
NCCNC(=O)c1ccc2c(c1)NC(=O)c1ccccc1S2	> 80 µM (inactive)
NC1CCN(C(=O)c2ccc3c(c2)NC(=O)c2ccccc2S3)C1 (stereo not drawn)	> 80 µM (inactive)
CCC(C)N1CCCC1CNC(=O)c1ccc2c(c1)NC(=O)c1ccccc1S2 (stereo not drawn)	9.97 µM
CCN1CCCC1CNC(=O)c1ccc2c(c1)NC(=O)C(Cc1ccccc1F)S2 (stereo not drawn)	> 80 µM (inactive)
CN(C)c1ccccc1CNC(=O)c1ccc2c(c1)NC(=O)/C(=C/c1ccccc1F)S2	67.8 µM
CCN(CC)CCCC(C)Nc1ccnc2cc(Cl)ccc12 (stereo not drawn)	43 µM

Second part, the compound after the results:

IC50	SMILES
1.94 µM	CCN1CCC[C@@H]1CNC(=O)c1ccc2c(c1)NC(=O)/C(=C/c1ccccc1F)S2
2.06 µM	CCN1CCCC1CNC(=O)c1ccc2c(c1)NC(=O)/C(=C/c1ccc(F)cc1)S2 (stereo not drawn)
35 µM	NC1CCN(C(=O)c2ccc3c(c2)NC(=O)/C(=C/c2ccccc2F)S3)C1 (stereo not drawn)
24.4 µM	CC(C)(C)OC(=O)N1CCCC1CNC(=O)c1ccc2c(c1)NC(=O)/C(=C/c1ccccc1F)S2 (stereo not drawn)
4.75 µM	CCN(CC)CCNC(=O)c1ccc2c(c1)NC(=O)/C(=C/c1ccccc1F)S2
4.65 µM	CCN1CCC[C@H]1CNC(=O)c1ccc2c(c1)NC(=O)/C(=C/c1ccccc1F)S2
